# Measured values published in ChEMBL document CHEMBL1201862, “PubChem BioAssay data set” (2004).
# Active and inactive are the calls of the source.
# How the values were obtained:
# [1] = HEp-2 cell cytotoxicity, dose response, cytotoxicity control for RSV inhibitor project, HTS (AID 2410); assay type: functional; settings: human respiratory syncytial virus
# HEK293 = assay: Fluorescence-based counterscreen for potentiators or agonists of NPY-Y2: cell-based high-throughput dose response assay to identify inhibitors of cyclic nucleotide gated ion channel (CNGC) activity. In this assay, the parental HEK293 cell line transfected with a cyclic-nucleotide gated ion channel (CNGC)-based cAMP sensor is used to measure inhibition of isoproterenol-induced CNGC activity by test compound.; assay type: functional; settings: Homo sapiens;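 note: stimulus is 1 µM isoproterenol at EC100 plus PDE inhibitor Ro 20-1724 at 25 µM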
# [2] = Luminescence Cell-Based Dose Confirmation HTS to Identify Activators of 5'UTR Stem-Loop Driven Alpha-Synuclein mRNA Translation in H4 Neuroglioblastoma Cells. [Related pubchem assays: 1829 (Project Summary), 1814 (Primary HTS)]; assay type: functional
# [3] = Luminescence Cell-Based Dose Response HTS to Identify Activators of Luciferase Translation or Activity in H4 […] Cells. [Related pubchem assays: 1829 (Project Summary), 1814 (Primary HTS)]; assay type: functional
# [4] = molecular target: T1, Neuropeptide Y receptor type 2 (Homo sapiens, UniProt P49146); assay: Fluorescence-based cell-based high-throughput dose response assay for agonists of NPY-Y2. [Related pubchem assays: 1703 (Screening assay (CNGC inhibitors).), 1359 (Screening assay (NPY-Y2 potentiators or agonists).), 1304 (Screening assay (NPY-Y1 potentiators or agonists).), 1710 (Screening assay (NPY-Y2 agonists).), 1791 (Summary AID.)]; assay type: functional
# T1 sequence (P49146 whole entry): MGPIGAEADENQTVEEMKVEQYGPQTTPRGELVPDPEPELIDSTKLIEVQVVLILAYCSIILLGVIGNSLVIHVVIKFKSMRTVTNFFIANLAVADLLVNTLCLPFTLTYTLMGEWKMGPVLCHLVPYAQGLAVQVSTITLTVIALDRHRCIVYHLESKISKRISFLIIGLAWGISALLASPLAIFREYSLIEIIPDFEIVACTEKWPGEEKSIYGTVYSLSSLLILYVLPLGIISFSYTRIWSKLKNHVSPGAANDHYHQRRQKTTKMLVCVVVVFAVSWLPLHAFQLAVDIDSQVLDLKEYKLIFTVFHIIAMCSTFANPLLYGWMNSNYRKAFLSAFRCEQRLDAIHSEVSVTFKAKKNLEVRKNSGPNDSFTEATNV
# H4 = assay: Luminescence Cell-Based Dose Response HTS to Identify Activators of 5'UTR Stem-Loop Driven Prion Protein mRNA Translation in H4 Neuroglioblastoma Cells. [Related pubchem assays: 1829 (Project Summary), 1814 (Primary HTS)]; assay type: functional; settings: Homo sapiens
# [5] = microbe, parasite or virus in culture; assay type: functional; settings: Mycobacterium tuberculosis
# [6] = molecular target: T2, Neuropeptide Y receptor type 1 (Homo sapiens, UniProt P25929); assay: Fluorescence-based counterscreen for agonists of NPY-Y2: cell-based high-throughput dose response assay for agonists of NPY-Y1.; assay type: functional
# T2 sequence (P25929 whole entry): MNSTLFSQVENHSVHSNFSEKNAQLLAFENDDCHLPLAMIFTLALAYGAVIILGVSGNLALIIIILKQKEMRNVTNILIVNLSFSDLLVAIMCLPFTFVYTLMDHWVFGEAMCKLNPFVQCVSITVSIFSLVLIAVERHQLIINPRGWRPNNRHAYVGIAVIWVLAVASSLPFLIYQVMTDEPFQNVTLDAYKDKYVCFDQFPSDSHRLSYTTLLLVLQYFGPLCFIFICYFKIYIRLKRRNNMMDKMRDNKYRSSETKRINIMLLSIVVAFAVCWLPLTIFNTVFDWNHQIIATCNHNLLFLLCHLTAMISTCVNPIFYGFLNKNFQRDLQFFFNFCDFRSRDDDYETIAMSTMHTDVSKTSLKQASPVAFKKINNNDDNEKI
# [7] = molecular target: T3, Eukaryotic translation initiation factor 2-alpha kinase 3 (Homo sapiens, UniProt Q9NZJ5); assay: Dose response cell-based high-throughput screening assay to measure PERK inhibition. [Related pubchem assays: 1416 ]; assay type: functional
# T3 sequence (Q9NZJ5 whole entry): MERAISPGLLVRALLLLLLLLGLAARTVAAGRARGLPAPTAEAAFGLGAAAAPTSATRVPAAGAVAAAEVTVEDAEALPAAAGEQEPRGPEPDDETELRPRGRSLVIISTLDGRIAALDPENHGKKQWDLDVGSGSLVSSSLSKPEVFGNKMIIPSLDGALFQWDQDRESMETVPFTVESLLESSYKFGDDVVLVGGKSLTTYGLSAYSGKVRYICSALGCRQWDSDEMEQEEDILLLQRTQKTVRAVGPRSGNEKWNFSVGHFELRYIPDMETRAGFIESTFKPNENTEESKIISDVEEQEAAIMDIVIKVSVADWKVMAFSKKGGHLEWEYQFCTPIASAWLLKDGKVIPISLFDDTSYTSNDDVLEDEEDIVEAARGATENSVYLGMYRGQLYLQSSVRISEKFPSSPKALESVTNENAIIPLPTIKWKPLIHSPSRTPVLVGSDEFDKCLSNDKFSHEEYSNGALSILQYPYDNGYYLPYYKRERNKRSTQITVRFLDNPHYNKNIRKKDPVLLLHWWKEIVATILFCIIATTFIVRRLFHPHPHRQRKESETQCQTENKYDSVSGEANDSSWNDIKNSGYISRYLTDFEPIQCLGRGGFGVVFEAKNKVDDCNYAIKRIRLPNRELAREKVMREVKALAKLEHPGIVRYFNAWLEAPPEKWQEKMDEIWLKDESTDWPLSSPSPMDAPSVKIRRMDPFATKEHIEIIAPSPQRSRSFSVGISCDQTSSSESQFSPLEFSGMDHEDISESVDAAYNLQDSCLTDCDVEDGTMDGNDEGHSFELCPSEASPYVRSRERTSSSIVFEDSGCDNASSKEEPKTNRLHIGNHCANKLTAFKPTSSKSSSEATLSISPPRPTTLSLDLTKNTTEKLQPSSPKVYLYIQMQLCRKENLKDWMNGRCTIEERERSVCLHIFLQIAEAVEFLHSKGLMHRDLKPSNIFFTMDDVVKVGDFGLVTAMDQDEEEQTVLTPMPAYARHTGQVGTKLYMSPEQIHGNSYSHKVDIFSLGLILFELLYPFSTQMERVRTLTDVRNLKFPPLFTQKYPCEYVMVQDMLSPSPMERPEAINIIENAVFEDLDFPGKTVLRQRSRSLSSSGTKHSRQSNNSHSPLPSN
# [8] = molecular target: T3, Eukaryotic translation initiation factor 2-alpha kinase 3; assay: Counterscreen assay for PERK inhibitors: Dose response cell-based high throughput screening assay to measure inhibition of PERK at 6 hours. [Related pubchem assays: 1522, 1416 ]; assay type: functional
# [9] = molecular target: Eukaryotic translation initiation factor 4H (Homo sapiens, UniProt Q15056); assay: human eIF4H binding inhibitors, primary screen, translation initiation inhibitor project, biochemical, uHTS, fluorescence polarization (AID 2012)
# [10] = molecular target: T4, Calpain-2 catalytic subunit (Sus scrofa, UniProt P43367); assay: pig calpain II inhibitor potency, dose response, biochemical, fluorogenic peptide substrate (AID 1420); assay type: functional
# T4 sequence (P43367 whole entry): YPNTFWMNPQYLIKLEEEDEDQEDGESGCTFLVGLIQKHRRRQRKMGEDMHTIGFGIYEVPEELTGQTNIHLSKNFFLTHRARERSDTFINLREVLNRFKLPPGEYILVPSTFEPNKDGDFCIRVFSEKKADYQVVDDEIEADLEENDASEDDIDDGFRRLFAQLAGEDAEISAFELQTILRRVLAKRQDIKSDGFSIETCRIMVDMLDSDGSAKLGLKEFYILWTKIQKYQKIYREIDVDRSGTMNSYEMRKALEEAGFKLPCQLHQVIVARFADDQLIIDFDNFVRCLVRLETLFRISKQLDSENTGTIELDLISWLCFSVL
# [11] = molecular target: Polyadenylate-binding protein 1 (Homo sapiens, UniProt P11940); assay: PABP poly(A) RNA binding inhibitors, primary screen, biochemical, fluorescence polarization, uHTS (AID 2014)
# [12] = molecular target: DNA dC->dU-editing enzyme APOBEC-3A (Homo sapiens, UniProt P31941); assay: Dose Response confirmation of small molecule APOBEC3A DNA Deaminase Inhibitors via a fluorescence-based single-stranded DNA deaminase assay. [Related pubchem assays (depositor defined):AID493011, AID493024]; assay type: functional
# [13] = molecular target: DNA dC->dU-editing enzyme APOBEC-3G (Homo sapiens, UniProt Q9HC16); assay type: functional;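 note: Dose-response counterscreen measuring inhibition of APOBEC3G DNA deaminase activity, run while confirming APOBEC3A inhibitors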
# [14] = molecular target: T5, Alkaline phosphatase, tissue-nonspecific isozyme (Homo sapiens, UniProt P05186)
# T5 sequence (P05186 whole entry): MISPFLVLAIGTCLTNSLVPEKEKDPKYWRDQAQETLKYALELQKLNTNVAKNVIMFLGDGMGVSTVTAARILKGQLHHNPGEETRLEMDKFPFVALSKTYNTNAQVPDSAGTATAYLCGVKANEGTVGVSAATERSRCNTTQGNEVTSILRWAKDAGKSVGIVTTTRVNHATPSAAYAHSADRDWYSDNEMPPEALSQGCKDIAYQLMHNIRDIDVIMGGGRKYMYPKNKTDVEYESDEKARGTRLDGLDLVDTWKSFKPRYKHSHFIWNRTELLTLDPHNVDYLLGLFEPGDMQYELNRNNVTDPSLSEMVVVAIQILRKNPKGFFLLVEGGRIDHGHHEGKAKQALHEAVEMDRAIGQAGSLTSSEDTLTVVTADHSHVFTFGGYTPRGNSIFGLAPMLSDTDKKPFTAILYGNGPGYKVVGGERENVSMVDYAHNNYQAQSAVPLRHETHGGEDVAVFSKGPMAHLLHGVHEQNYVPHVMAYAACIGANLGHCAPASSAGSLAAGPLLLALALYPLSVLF
# [15] = THP-1 cell cytotoxicity, dose response, cytotoxicity control for Vif-APOBEC3G degradation inhibitor project, THP-1 cells (AID 1117359); assay type: functional; settings: Human immunodeficiency virus 1, THP-1
# [16] = molecular target: Lysosomal acid glucosylceramidase (Homo sapiens, UniProt P04062); assay: Dose response cell-based high throughput screening assay to identify enhancers of beta-glucosidase activity. [Related pubchem assays: 784 ]; assay type: functional
# [17] = molecular target: T6, Neuropeptides B/W receptor type 1 (Homo sapiens, UniProt P48145); assay: Fluorescence-based dose response cell-based high throughput screening assay to identify antagonists of the G-protein coupled receptor 7 (GPR7). [Related pubchem assays: 1952 (Screening assay (GPR7 antagonists).), 1880 (Summary AID.)]; assay type: functional
# T6 sequence (P48145 whole entry): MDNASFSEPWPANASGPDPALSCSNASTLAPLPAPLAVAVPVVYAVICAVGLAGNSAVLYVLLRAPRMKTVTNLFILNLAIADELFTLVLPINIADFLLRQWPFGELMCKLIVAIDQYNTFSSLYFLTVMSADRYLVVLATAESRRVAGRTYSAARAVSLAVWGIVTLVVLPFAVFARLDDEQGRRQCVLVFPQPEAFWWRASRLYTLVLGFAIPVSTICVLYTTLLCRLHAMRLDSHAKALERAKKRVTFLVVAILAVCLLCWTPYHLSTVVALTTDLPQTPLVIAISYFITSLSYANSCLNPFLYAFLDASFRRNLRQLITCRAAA
# [18] = molecular target: Melanin-concentrating hormone receptor 1 (Homo sapiens, UniProt Q99705); assay: Fluorescence-based counterscreen for antagonists of the G-protein coupled receptor 7 (GPR7): cell-based high throughput dose response assay to identify antagonists of the melanin-concentrating hormone receptor 1 (MCHR1).; assay type: functional
# [19] = molecular target: Luciferin 4-monooxygenase (Photinus pyralis, UniProt P08659); assay: firefly luciferase enzyme inhibitors, dose response, biochemical, luminescence (AID 1891)
# [20] = Luminescence Cell-Based Dose Confirmation HTS to Identify Inhibitors of Platelet Dense Granule Release. [Related pubchem assays: 1663 (Primary HTS), 1678 (Summary of Project)]; assay type: functional
# Paired box protein Pax-8 = Paired box protein Pax-8 (Homo sapiens, UniProt Q06710); assay: inhibitors of PAX8-driven TPO luciferase reporter, dose response, RMG-I cells, cherry-pick (AID 687027); assay type: functional, cell-based;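 note: luciferase reporter driven by Pax8 target thyroperoxidase promoter measured by SteadyGlo luminescence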
# Sequence of Paired box protein Pax-8 (Q06710 whole entry): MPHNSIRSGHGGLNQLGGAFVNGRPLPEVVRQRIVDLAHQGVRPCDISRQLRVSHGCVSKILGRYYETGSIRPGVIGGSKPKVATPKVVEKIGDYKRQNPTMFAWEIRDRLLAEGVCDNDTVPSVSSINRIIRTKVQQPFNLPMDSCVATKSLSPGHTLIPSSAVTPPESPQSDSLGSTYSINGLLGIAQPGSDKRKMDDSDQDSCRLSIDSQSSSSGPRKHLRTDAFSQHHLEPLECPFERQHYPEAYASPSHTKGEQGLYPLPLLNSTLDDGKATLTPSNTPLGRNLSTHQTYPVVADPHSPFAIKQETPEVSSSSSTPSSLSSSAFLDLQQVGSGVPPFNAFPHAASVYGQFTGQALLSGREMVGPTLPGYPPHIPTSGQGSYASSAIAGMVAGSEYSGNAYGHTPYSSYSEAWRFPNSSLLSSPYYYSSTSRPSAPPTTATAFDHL
# Sequence of Lysosomal acid glucosylceramidase (P04062 whole entry): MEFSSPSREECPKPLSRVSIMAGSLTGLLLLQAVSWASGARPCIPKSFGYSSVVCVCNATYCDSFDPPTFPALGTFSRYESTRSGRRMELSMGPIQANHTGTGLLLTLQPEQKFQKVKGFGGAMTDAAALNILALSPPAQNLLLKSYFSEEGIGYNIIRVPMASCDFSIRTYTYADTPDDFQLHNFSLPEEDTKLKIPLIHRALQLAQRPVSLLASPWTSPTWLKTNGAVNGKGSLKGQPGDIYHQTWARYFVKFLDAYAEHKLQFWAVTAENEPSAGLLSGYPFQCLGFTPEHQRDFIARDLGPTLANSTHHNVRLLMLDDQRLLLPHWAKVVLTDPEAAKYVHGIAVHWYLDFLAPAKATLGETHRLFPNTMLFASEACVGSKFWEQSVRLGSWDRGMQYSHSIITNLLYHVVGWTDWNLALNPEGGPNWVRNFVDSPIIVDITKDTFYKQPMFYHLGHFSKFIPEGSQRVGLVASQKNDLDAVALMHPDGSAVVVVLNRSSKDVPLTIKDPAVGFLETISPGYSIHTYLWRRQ
# Sequence of Polyadenylate-binding protein 1 (P11940 whole entry): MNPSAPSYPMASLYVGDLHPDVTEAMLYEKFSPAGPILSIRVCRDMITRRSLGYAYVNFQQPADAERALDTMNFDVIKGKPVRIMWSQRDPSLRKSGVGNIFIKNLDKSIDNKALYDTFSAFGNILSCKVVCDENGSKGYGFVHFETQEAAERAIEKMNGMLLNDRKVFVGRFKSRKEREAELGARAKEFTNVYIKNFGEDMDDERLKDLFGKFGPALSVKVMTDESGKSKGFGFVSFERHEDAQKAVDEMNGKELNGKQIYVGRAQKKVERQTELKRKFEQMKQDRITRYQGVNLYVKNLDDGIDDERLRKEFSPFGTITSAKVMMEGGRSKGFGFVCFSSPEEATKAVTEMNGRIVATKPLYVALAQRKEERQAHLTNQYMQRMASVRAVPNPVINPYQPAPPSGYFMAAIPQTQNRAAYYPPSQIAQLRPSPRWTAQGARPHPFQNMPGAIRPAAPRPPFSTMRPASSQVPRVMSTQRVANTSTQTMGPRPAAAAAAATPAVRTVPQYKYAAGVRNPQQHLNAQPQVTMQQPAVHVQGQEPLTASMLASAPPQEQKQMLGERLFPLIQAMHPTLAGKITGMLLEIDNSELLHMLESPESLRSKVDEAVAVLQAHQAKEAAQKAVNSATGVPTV
# Sequence of Luciferin 4-monooxygenase (P08659 whole entry): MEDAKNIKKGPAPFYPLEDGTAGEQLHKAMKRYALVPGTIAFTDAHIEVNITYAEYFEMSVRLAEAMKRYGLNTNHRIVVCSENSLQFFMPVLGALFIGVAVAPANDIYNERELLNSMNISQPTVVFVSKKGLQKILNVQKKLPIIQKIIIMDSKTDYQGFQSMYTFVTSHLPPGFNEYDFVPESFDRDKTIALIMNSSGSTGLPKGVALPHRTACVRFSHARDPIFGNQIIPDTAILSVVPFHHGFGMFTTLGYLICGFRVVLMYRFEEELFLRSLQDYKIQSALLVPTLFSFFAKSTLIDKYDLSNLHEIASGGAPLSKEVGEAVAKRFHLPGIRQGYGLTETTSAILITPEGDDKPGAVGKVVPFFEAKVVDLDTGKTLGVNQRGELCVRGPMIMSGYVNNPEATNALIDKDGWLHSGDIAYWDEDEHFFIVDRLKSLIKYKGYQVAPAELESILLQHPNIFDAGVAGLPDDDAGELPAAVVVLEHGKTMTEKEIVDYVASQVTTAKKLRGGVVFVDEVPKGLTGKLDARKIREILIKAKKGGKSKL
# Sequence of Melanin-concentrating hormone receptor 1 (Q99705 whole entry): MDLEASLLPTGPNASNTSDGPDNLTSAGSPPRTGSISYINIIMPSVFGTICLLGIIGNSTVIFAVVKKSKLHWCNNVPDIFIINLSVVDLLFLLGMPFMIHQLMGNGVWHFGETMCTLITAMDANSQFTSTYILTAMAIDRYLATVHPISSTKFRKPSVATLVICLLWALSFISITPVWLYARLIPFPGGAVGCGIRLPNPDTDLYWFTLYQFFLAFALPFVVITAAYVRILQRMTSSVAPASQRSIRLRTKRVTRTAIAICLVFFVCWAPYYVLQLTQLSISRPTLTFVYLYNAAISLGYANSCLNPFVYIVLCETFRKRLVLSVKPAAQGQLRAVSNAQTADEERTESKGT
# Sequence of DNA dC->dU-editing enzyme APOBEC-3G (Q9HC16 whole entry): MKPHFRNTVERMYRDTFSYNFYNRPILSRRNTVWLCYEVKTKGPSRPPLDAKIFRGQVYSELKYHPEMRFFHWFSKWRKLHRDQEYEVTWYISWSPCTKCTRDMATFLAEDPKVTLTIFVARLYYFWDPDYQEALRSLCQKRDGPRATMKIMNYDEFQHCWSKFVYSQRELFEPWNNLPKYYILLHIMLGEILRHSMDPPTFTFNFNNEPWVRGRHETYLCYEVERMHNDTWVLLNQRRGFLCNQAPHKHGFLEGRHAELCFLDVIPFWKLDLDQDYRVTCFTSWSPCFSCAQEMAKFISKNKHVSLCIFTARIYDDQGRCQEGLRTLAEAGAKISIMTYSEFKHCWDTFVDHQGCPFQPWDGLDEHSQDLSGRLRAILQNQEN
# Sequence of DNA dC->dU-editing enzyme APOBEC-3A (P31941 whole entry): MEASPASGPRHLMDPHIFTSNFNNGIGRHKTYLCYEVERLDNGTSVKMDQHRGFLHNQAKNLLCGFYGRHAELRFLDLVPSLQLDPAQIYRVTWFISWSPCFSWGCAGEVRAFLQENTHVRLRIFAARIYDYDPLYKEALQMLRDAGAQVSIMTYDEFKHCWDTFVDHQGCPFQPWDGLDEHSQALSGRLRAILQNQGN
smiles,measurement,setting,value
CCn1c2ccccc2c2cc(NC(=O)CN(C)CC(=O)Nc3ccc(N4CCOCC4)cc3)ccc21,CC50,[1],32.7 µM (active)
same,EC50,HEK293,> 35.4 µM (not active)
same,EC50,[2],> 120 µM (not active)
same,EC50,[3],> 120 µM (not active)
same,EC50,[4],> 35.4 µM (not active)
same,EC50,H4,> 120 µM (not active)
same,CC50,[5],37.5 µM (active)
same,EC50,[6],> 35.4 µM (not active)
COc1ccc2c(c1)c(=O)oc1cc(O)ccc12,EC50,[7],> 55.7 µM (not active)
same,EC50,[8],> 55.7 µM (not active)
COc1ccc(CCCc2nnc(SCC(=O)Nc3ccc(C)c(C)c3)o2)cc1,IC50,[9],> 100 µM (inactive)
same,IC50,[10],< 0.4 µM (not active)
same,IC50,[11],6.61 µM (active)
same,IC50,[12],2.18 µM (active)
same,IC50,[13],3.68 µM (active)
O=C(CCC(=O)NNc1nc2ccccc2c2nc(-c3ccccc3)nn12)NCCCN1CCOCC1,EC50,[14],70.8 µM (not active)
same,CC50,[15],> 40 µM (active)
O=C(O)Cn1cnc2c(S)ncnc21,EC50,[7],> 55.7 µM (not active)
same,EC50,[8],> 55.7 µM (not active)
CCOC(=O)CN1C(=O)CSc2ccccc21,EC50,[16],> 10 µM (not active)
COc1ccc(-c2nc3ccccn3c2CN2CCN(c3ccccc3F)CC2)cc1,EC50,[14],69.1 µM (not active)
same,CC50,[5],> 40 µM (active)
CC(C)(CO)NCc1c(OCc2ccc(Cl)cc2)ccc2ccccc12,IC50,[17],7.85 µM (active)
same,IC50,[18],9.31 µM (active)
Cn1c(Cc2ccccc2)nnc1SCC(=O)Nc1ccccc1N1CCOCC1,EC50,[16],> 50 µM (not active)
O=C(N/N=C/c1ccc(Cl)c([N+](=O)[O-])c1)c1cc(-c2ccc3c4c(cccc24)CC3)[nH]n1,EC50,HEK293,> 35.4 µM (not active)
same,EC50,[4],> 35.4 µM (not active)
same,EC50,[19],> 112 µM (not active)
same,EC50,[20],> 112 µM (not active)
same,EC50,[6],> 35.4 µM (not active)
same,AC50,Paired box protein Pax-8,3.25 µM (active)
COc1cc(/C=N\NC(=O)c2ccc(Cl)cc2)ccc1Oc1ccc([N+](=O)[O-])cn1,IC50,[9],> 100 µM (inactive)
same,IC50,[11],9.22 µM (active)
